# Assay results as given in paper PMC12606464, “Investigating NFE2L1 activators for targeted protein aggregate clearance: a follow-up study” (RSC Medicinal Chemistry, 2025).
# Test system: C. elegans wild-type (N2)
# Experiment: Acute juglone/paraquat-induced oxidative stress resistance in C. elegans N2
# Assay type: in vivo, Caenorhabditis elegans
# Conditions: for # deaths/events: over 12 hours; for Median survival: Fig. 5C
# Procedure: Fig. 5 RUN-89 prevents protein aggregation and increases stress resistance in C. elegans. (A) The AM140 strain expressing aggregation-prone Q35-YFP was treated with 50 μM RUN-89 or the vehicle for 6 days, followed by microscopy analysis. Overall, 959 Q35-YFP foci (DMSO = 517; RUN-89 = 442) were identified in 102 animals (DMSO: N = 3 populations, n = 55 animals in total; RUN-89: N = 3 populations, n = 47 animals in total). The two dashed horizontal lines indicate the interquartile range, and the thick horizontal line represents the median. The Kolmogorov–Smirnov test verified a significant reduction of surface and integrated optical density of foci after RUN-89 treatment. (B) Representative images of two animals per treatment condition. Images were taken on the same day, using identical settings for the instruments used. (C) Protective effect of RUN-89 against juglone and paraquat-induced stress. […] The mortality was monitored hourly over a 12 hour period. […] For juglone treatment, 629 animals were examined (DMSO: N = 2 populations of 167 and 152 animals, n = 319 animals in total; RUN-89: N = 2 populations of 141 and 169 animals, n = 310 animals in total). Results were analyzed using the Kaplan–Meier method and are presented as survival percentages with standard errors. The survival curves were compared using the Gehan–Breslow–Wilcoxon test (juglone) and log-rank test (paraquat). (A and C) Detailed results of the analysis are shown in SI Tables S10 and S11. *p < 0.05, ****p < 0.001.
# Next, we examined whether the compound RUN-89 protects animals from oxidative damage/death induced by increased reactive oxygen species (ROS) levels. In worms, the herbicide paraquat and the naturally occurring quinone compound juglone are well-known for inducing oxidative stress.[84] In this experiment, the wild-type (N2) strain was used, and RUN-89 was administered at a concentration of 50 μM for 24 hours. Following this pretreatment, approximately 130 animals were transferred to plates containing either 180 μM juglone or 200 μM paraquat. Worm mortality was monitored over a 12-hour period. […]
# 2.13 C. elegans strains and maintenance
# The animals were kept at 20 °C according to standard cultivation conditions (Biron & […]
# (mgIs72 [rpt-3p::GFP + dpy-5(+)] II) of Caenorhabditis elegans strains and E. coli strain OP50 were obtained from the Caenorhabditis Genetic Centre (CGC, University of Minnesota , http://cbs.umn.edu/cgc/home). […]
# Kolmogorov-Smirnov test performed in GraphPad Prism (v 10.6.1).
# 2.15 Acute juglone/paraquat-induced oxidative stress resistance in C.
# Eggs of the wild-type strain (N2) were placed in liquid S-basal medium supplemented with E. coli OP50 as a food source. Upon reaching the young adult stage, they were exposed to either 50 µM RUN 89 or an equivalent volume of solvent (control group) and incubated at 20 °C for 24 hours. Approximately 130 animals were placed on plates containing either 180 µM juglone or 200 µM paraquat to induce severe oxidative stress .(5, 6) The number of dead animals was recorded each hour throughout the 12-hour experiment. The data were then analyzed using Kaplan-Meier survival analysis, and the results were examined through this method. Su rvival curves were compared via the Gehan-Breslow-Wilcoxon test or the log-rank (Mantel-Cox) test in GraphPad Prism software ( v 10.6.1).
# [1] = juglon stress, B = juglon + DMSO, C = juglon + RUN-89
# [2] = paraquat stress, B = paraquat + DMSO, C = paraquat + RUN-89
structure (smiles),measurement,setting,value
COc1ccc(/C=C2\CC(NC(=O)C3CCCC3)C/C(=C\c3ccc(OC)c(OC)c3)C2=O)cc1OC (stereo not drawn) [RUN-89],Protection against juglone-induced lethal oxidative stress,"N2, 50 μM for 24 h, then 180 μM juglone, mortality over 12 h",significant protective effect
same,Protection against paraquat-induced lethal oxidative stress,"N2, 50 μM for 24 h, then 200 μM paraquat, mortality over 12 h",significant protective effect
same,"Ratio of median survival (reciprocal), juglon + RUN-89 / juglon + DMSO",juglon stress,1.25
same,"Ratio of median survival, juglon + DMSO / juglon + RUN-89",juglon stress,0.8
same,# deaths/events,"juglon stress, 306 subjects at 0 h",305
same,# at risk,"juglon stress, 1 hour, 306 at 0 h",306
same,# at risk,"juglon stress, 2 hours, 306 at 0 h",289
same,# at risk,"juglon stress, 3 hours, 306 at 0 h",235
same,# at risk,"juglon stress, 4 hours, 306 at 0 h",190
same,# at risk,"juglon stress, 5 hours, 306 at 0 h",164
same,# at risk,"juglon stress, 6 hours, 306 at 0 h",124
same,# at risk,"juglon stress, 7 hours, 306 at 0 h",105
same,# at risk,"juglon stress, 8 hours, 306 at 0 h",82
same,# at risk,"juglon stress, 9 hours, 306 at 0 h",37
same,# at risk,"juglon stress, 10 hours, 306 at 0 h",13
same,# at risk,"juglon stress, 11 hours, 306 at 0 h",7
same,# at risk,"juglon stress, 12 hours, 306 at 0 h",1
same,Median survival,"juglon stress, juglon + DMSO median 4",5 h
same,Hazard Ratio (Mantel-Haenszel) B/C,[1],1.206
same,Hazard Ratio (Mantel-Haenszel) C/B,[1],0.8295
same,Hazard Ratio (logrank) B/C,[1],1.141
same,Hazard Ratio (logrank) C/B,[1],0.8761
same,"Ratio of median survival (reciprocal), paraquat + RUN-89 / paraquat + DMSO",paraquat stress,1.4
same,"Ratio of median survival, paraquat + DMSO / paraquat + RUN-89",paraquat stress,0.7143
same,# deaths/events,"paraquat stress, 274 subjects at 0 h",273
same,# at risk,"paraquat stress, 1 hour, 274 at 0 h",274
same,# at risk,"paraquat stress, 2 hours, 274 at 0 h",263
same,# at risk,"paraquat stress, 3 hours, 274 at 0 h",241
same,# at risk,"paraquat stress, 4 hours, 274 at 0 h",216
same,# at risk,"paraquat stress, 5 hours, 274 at 0 h",209
same,# at risk,"paraquat stress, 6 hours, 274 at 0 h",167
same,# at risk,"paraquat stress, 7 hours, 274 at 0 h",148
same,# at risk,"paraquat stress, 8 hours, 274 at 0 h",130
same,# at risk,"paraquat stress, 9 hours, 274 at 0 h",109
same,# at risk,"paraquat stress, 10 hours, 274 at 0 h",84
same,# at risk,"paraquat stress, 11 hours, 274 at 0 h",44
same,# at risk,"paraquat stress, 12 hours, 274 at 0 h",11
same,Median survival,"paraquat stress, paraquat + DMSO median 5",7 h
same,Hazard Ratio (Mantel-Haenszel) B/C,[2],1.524
same,Hazard Ratio (Mantel-Haenszel) C/B,[2],0.6563
same,Hazard Ratio (logrank) B/C,[2],1.357
same,Hazard Ratio (logrank) C/B,[2],0.7368
